The values below come from patent US20240101572A1, “DIHYDROOXADIAZINONE COMPOUND AND PHARMACEUTICAL USE THEREOF” (Japan Tobacco Inc., priority 2022, published 2024).

pIC50: −log10 of the molar value. Read-outs that look alike come from different tables or passages of the source.

For one assay, the target named is full-length human PLD1 (Homo sapiens (Human), UniProt Q13393). Kind of assay: Evaluation of human PLD1 enzyme inhibitory activity (Amplex Red / choline oxidase fluorescence). The format is biochemical. In outline:
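N-terminally FLAG-tagged full-length human PLD1 (1-1036), expressed in Expi293F and FLAG-purified, incubated with compound (5% DMSO final) and 1,2-diheptanoyl-sn-glycero-3-phosphocholine for 60 min at room temperature in HEPES pH 7.5 buffer. Released choline detected by Amplex Red/choline oxidase/HRP fluorescence.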

Another assay has as its target full-length human PLD2 (Homo sapiens (Human), UniProt O14939). The experiment in a line: Evaluation of human PLD2 enzyme inhibitory activity (Amplex Red / choline oxidase fluorescence). It counts as biochemical. The method in brief: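 Enzyme was N-terminal FLAG-tagged full-length human PLD2 (1-933), expressed in Expi293F cells and anti-FLAG purified. Compound (5% DMSO final) was incubated with enzyme (6 nmol/L solution) and 1,2-diheptanoyl-PC (6 mmol/L solution) in HEPES pH 7.5, KCl, EGTA, MgCl2, NP-40, BSA buffer for 60 min at room temperature. Choline was detected with Amplex Red/choline oxidase/HRP.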

Setting [1] is: full-length human PLD1 enzyme, read-out: PLD1 IC50.
[2] abbreviates: full-length human PLD2 enzyme, read-out: PLD2 IC50.
The mark [3] stands for this setting: column 1 of continuation tables 2-12 to 2-14, read-out: human PLD1 enzyme inhibitory activity IC50.
Where [4] appears, read: column 2 of continuation tables 2-12 to 2-14, read-out: human PLD2 enzyme inhibitory activity IC50.

full-length human PLD1, sequence (Q13393 other isoform, or with tags, fused parts or gaps): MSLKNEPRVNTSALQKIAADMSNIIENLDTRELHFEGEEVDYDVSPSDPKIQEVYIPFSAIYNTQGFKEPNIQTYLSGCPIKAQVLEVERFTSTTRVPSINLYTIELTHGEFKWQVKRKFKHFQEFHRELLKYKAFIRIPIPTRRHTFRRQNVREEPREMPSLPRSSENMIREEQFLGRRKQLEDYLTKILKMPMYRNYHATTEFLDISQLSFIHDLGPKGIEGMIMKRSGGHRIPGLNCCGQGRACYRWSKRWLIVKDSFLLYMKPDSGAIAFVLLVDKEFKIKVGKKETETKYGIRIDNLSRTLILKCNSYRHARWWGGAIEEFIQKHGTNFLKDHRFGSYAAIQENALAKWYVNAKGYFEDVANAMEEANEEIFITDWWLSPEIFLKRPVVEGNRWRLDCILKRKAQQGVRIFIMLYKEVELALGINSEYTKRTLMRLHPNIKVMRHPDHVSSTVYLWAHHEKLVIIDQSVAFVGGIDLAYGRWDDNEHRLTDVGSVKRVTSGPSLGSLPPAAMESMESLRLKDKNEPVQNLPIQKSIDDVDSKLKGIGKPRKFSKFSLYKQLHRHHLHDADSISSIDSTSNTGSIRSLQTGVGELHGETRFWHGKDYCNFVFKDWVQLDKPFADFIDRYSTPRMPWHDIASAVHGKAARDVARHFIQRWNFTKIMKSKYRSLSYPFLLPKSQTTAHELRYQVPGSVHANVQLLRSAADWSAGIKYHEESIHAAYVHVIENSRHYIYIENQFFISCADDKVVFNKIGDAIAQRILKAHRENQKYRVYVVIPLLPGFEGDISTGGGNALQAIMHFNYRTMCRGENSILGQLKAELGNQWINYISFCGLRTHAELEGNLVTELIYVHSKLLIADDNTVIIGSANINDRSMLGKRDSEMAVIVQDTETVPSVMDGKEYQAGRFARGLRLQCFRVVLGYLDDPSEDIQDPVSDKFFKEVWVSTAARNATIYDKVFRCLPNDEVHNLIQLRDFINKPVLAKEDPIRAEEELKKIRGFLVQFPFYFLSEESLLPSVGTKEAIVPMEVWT
full-length human PLD2, sequence (O14939 whole entry): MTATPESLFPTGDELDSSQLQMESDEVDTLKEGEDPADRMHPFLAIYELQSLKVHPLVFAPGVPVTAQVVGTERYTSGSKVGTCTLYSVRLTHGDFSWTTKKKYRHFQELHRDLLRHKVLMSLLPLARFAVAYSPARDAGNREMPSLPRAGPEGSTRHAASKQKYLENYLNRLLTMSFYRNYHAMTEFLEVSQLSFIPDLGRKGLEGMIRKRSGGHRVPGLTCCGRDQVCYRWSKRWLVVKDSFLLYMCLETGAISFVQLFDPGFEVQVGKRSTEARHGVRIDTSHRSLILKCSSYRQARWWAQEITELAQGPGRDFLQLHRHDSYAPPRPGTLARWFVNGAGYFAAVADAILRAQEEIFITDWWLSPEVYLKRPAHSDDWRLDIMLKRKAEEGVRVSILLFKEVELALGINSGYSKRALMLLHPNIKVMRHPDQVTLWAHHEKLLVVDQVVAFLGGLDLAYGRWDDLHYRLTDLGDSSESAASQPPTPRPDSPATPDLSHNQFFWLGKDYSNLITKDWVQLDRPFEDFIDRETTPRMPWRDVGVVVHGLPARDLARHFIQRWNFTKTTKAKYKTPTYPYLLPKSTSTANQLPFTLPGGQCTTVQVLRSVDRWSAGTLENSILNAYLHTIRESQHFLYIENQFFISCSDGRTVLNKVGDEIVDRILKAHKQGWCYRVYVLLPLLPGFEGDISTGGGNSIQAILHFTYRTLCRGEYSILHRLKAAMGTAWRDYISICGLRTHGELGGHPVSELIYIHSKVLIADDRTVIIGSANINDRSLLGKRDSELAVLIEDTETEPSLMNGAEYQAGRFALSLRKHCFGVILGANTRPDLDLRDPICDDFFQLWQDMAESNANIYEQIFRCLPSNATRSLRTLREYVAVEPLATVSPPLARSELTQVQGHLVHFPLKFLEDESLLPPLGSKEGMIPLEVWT

The pIC50 is the IC50 on a negative log10 scale, so that one unit is a factor of ten. Take `C[C@@H](CN1CCC2(CC1)OC(=O)NN=C2c1cc(C#N)ccc1Br)NC(=O)c1cn(C)cn1` [Example 2-054]: the negative-log IC50 (pIC50) on full-length human PLD1 (setting [1]) is 7.43; on full-length human PLD2 (setting [2]) it was > 8.00.

Turning to `CNC(=O)C(=O)N[C@@H](C)C[C@]1(C#N)CC[C@@]2(CC1)OC(=O)NN=C2c1cc(OC(F)F)ccc1Br` [Example 2-055], the pIC50 was 7.96 at full-length human PLD1 (setting [1]) and > 8.00 on full-length human PLD2 (setting [2]).

For the molecule `CNC(=O)C(=O)N[C@@H](C)C[C@H]1CC[C@]2(CC1)OC(=O)NN=C2c1cc(C(=O)N2CCC(F)(F)C2)ccc1Br` [Example 2-056], the negative logarithm of the IC50 (pIC50) at full-length human PLD1 (setting [1]) is 7.77; on full-length human PLD2 (setting [2]) it was > 8.00.

As to `CNC(=O)C(=O)N[C@@H](C)C[C@H]1CC[C@]2(CC1)OC(=O)NN=C2c1cc(C(=O)N2CC(F)(F)C2)ccc1Br` [Example 2-057], the negative-log IC50 (pIC50) at full-length human PLD1 (setting [1]) was 7.74; on full-length human PLD2 (setting [2]), > 8.00.

Take `CNC(=O)C(=O)N[C@@H](C)C[C@H]1CC[C@]2(CC1)OC(=O)NN=C2c1cn(CC(F)F)nc1I` [Example 2-058]: the pIC50 at full-length human PLD1 (setting [1]) was 7.59; at full-length human PLD2 (setting [2]) it was 7.18.

As for `C[C@@H](CN1CCC2(CC1)OC(=O)NN=C2c1ccc(C#N)cc1Br)NC(=O)c1cncn1C` [Example 2-059], the figures for the negative logarithm of the IC50 (pIC50) at full-length human PLD1 (setting [1]) and at full-length human PLD2 (setting [2]) were 6.14 and 6.30, respectively.

Consider `C[C@@H](CN1CCC2(CC1)OC(=O)NN=C2c1ccc(C#N)cc1Br)NC(=O)c1cn(C)cn1` [Example 2-060], for which the pIC50 on full-length human PLD1 (setting [1]) was 7.57; at full-length human PLD2 (setting [2]) it was 7.96.

Consider `C[C@@H](CN1CCC2(CC1)OC(=O)NN=C2c1ccc(C#N)cc1Br)NC(=O)c1cc(Cl)no1` [Example 2-061], for which the pIC50 is 7.85 on full-length human PLD1 (setting [1]) and > 8.00 on full-length human PLD2 (setting [2]).

For `Cc1cc(C(=O)N[C@@H](C)CN2CCC3(CC2)OC(=O)NN=C3c2ccc(C#N)cc2Br)on1` [Example 2-062], the negative-log IC50 (pIC50) on full-length human PLD1 (setting [1]) and on full-length human PLD2 (setting [2]) was 7.60 in each case.

Regarding `CNC(=O)/C=C\C(=O)N[C@@H](C)CN1CCC2(CC1)OC(=O)NN=C2c1cc(C#N)ccc1Br` [Example 2-063], the values for the pIC50 at full-length human PLD1 (setting [1]) and on full-length human PLD2 (setting [2]) were 6.76 and 6.97, respectively.

Turning to `C[C@@H](CN1CCC2(CC1)OC(=O)NN=C2c1ccc(C#N)cc1Br)NC(=O)C(=O)NC1CC1` [Example 2-064], the pIC50 on full-length human PLD1 (setting [1]) is 7.57; on full-length human PLD2 (setting [2]), 7.96.

On to `CNC(=O)C(=O)N[C@@H](C)C[C@]1(C#N)CC[C@@]2(CC1)OC(=O)NN=C2c1ccc(C#N)cc1Br` [Example 2-065], for which the pIC50 on full-length human PLD1 (setting [1]) was 7.68; at full-length human PLD2 (setting [2]), > 8.00.

In the case of `CNC(=O)C(=O)N[C@@H](C)C[C@]1(C#N)CC[C@@]2(CC1)OC(=O)NN=C2c1cc(C(F)(F)F)ccc1Br` [Example 2-066], the negative-log IC50 (pIC50) at full-length human PLD1 (setting [1]) was 7.82; at full-length human PLD2 (setting [2]), > 8.00.

On to `CNC(=O)C(=O)N[C@@H](C)C[C@]1(C#N)CC[C@@]2(CC1)OC(=O)NN=C2c1ccc(OC(F)F)cc1Br` [Example 2-067], for which the pIC50 is 7.82 on full-length human PLD1 (setting [1]) and > 8.00 at full-length human PLD2 (setting [2]).

On to `C[C@@H](C[C@]1(C#N)CC[C@@]2(CC1)OC(=O)NN=C2c1cc(C#N)ccc1Br)NC(=O)c1cc(Cl)no1` [Example 2-068], for which the negative logarithm of the IC50 (pIC50) at full-length human PLD1 (setting [1]) and on full-length human PLD2 (setting [2]) was > 8.00 each time.

In the case of `C[C@@H](C[C@H]1CC[C@]2(CC1)OC(=O)NN=C2c1cc(C#N)ccc1Br)NC(=O)c1cc(C2CC2)n[nH]1` [Example 2-069], the pIC50 at full-length human PLD1 (setting [1]) and at full-length human PLD2 (setting [2]) was > 8.00 throughout.

Take `C[C@@H](C[C@H]1CC[C@]2(CC1)OC(=O)NN=C2c1cc(C#N)ccc1Br)NC(=O)c1ccn(C)n1` [Example 2-070]: the negative-log IC50 (pIC50) at full-length human PLD1 (setting [1]) was 7.17; on full-length human PLD2 (setting [2]) it was 7.42.

As for `C[C@@H](C[C@H]1CC[C@]2(CC1)OC(=O)NN=C2c1cc(C#N)ccc1Br)NC(=O)c1cn(C)cn1` [Example 2-071], the pIC50 at full-length human PLD1 (setting [1]) is 7.89; at full-length human PLD2 (setting [2]) it was > 8.00.

As to `C[C@@H](C[C@H]1CC[C@]2(CC1)OC(=O)NN=C2c1ccc(C#N)cc1Br)NC(=O)c1cc(C2CC2)n[nH]1` [Example 2-072], the results for the negative logarithm of the IC50 (pIC50) at full-length human PLD1 (setting [1]) and on full-length human PLD2 (setting [2]) were 7.85 and 7.62, respectively.

On to `[2H]C([2H])([2H])NC(=O)C(=O)N[C@@H](C)C[C@H]1CC[C@]2(CC1)OC(=O)NN=C2c1cc(C#N)ccc1Br` [Example 2-073], for which the results for the pIC50 on full-length human PLD1 (setting [1]) and on full-length human PLD2 (setting [2]) were 7.85 and 8.70, respectively.

Consider `CNC(=O)C(=O)N[C@@H](C)C[C@H]1CC[C@]2(CC1)OC(=O)NN=C2c1cc(OC)ncc1Br` [Example 2-074], for which the negative logarithm of the IC50 (pIC50) was 7.96 at full-length human PLD1 (setting [1]) and > 8.00 on full-length human PLD2 (setting [2]).

For the molecule `CNC(=O)C(=O)N[C@@H](C)C[C@H]1CC[C@]2(CC1)OC(=O)NN=C2c1cc(C(F)(F)F)ncc1Br` [Example 2-075], the pIC50 was 7.80 at full-length human PLD1 (setting [1]) and > 8.00 on full-length human PLD2 (setting [2]).

On to `CNC(=O)C(=O)N[C@@H](C)C[C@]1(C#N)CC[C@@]2(CC1)OC(=O)NN=C2c1cccc(C(F)(F)F)c1Br` [Example 2-076], for which the pIC50 on full-length human PLD1 (setting [1]) was 7.96; on full-length human PLD2 (setting [2]), > 8.00.

Take `CNC(=O)C(=O)N[C@@H](C)C[C@]1(C#N)CC[C@@]2(CC1)OC(=O)NN=C2c1cc(OC)ncc1Br` [Example 2-077]: the negative-log IC50 (pIC50) on full-length human PLD1 (setting [1]) is 7.82; on full-length human PLD2 (setting [2]), > 8.00.

Consider `C[C@@H](C[C@]1(C#N)CC[C@@]2(CC1)OC(=O)NN=C2c1cc(OC(F)F)ccc1Br)NC(=O)c1cn(C)cn1` [Example 2-078], for which the pIC50 on full-length human PLD1 (setting [1]) and at full-length human PLD2 (setting [2]) was > 8.00 throughout.

Take `C[C@@H](C[C@]1(C#N)CC[C@@]2(CC1)OC(=O)NN=C2c1cc(C(F)(F)F)ccc1Br)NC(=O)c1cn(C)cn1` [Example 2-079]: the values for the negative logarithm of the IC50 (pIC50) at full-length human PLD1 (setting [1]) and on full-length human PLD2 (setting [2]) were 7.96 and 8.00, respectively.

Take `CNC(=O)C(=O)N[C@@H](C)C[C@]1(C#N)CC[C@@]2(CC1)OC(=O)NN=C2c1cc(OC(F)(F)F)ccc1Br` [Example 2-080]: the pIC50 on full-length human PLD1 (setting [1]) and at full-length human PLD2 (setting [2]) was > 8.00 in each case.

Usually inhibition stands for the change of the read-out against control, counted positive when it falls. In the case of `C[C@@H](C[C@]1(C#N)CC[C@@]2(CC1)OC(=O)NN=C2c1cc(OCC(F)F)ncc1Br)NC(=O)C(=O)NC1CC1` [Example 2-101], the inhibition at 10 µM stood at 13% on full-length human PLD1 (read-out: human PLD1 % inhibition at 10 μM), 13% on full-length human PLD1 (read-out: inhibition rate of PLD1 at 10 μM compound), 28% on full-length human PLD2 (read-out: human PLD2 % inhibition at 10 μM) and 28% at full-length human PLD2 (read-out: inhibition rate of PLD2 at 10 μM compound).

Consider `[2H]C([2H])([2H])NC(=O)C(=O)N[C@@H](C)C[C@]1(C#N)CC[C@@]2(CC1)OC(=O)NN=C2c1cc(OC(F)F)ccc1Br` [Example 2-113], for which the pIC50 on full-length human PLD1 (setting [3]) is 7.85; on full-length human PLD2 (setting [4]), > 8.00.

Turning to `[2H]C([2H])([2H])NC(=O)C(=O)N[C@@H](C)C[C@]1(C#N)CC[C@@]2(CC1)OC(=O)NN=C2c1cccc(C(F)(F)F)c1Br` [Example 2-118], the pIC50 at full-length human PLD1 (setting [3]) is 7.72; at full-length human PLD2 (setting [4]), > 8.00.

Regarding `[2H]C([2H])([2H])NC(=O)C(=O)N[C@@H](C)C[C@]1(OC)CC[C@@]2(CC1)OC(=O)NN=C2c1cccc(C(F)(F)F)c1Br` [Example 2-129], the values for the pIC50 at full-length human PLD1 (setting [3]) and on full-length human PLD2 (setting [4]) were 7.60 and > 8.00, respectively.

For `[2H]C([2H])([2H])NC(=O)C(=O)N[C@@H](C)C[C@]1(OC)CC[C@@]2(CC1)OC(=O)NN=C2c1ccc(C#N)cc1Br` [Example 2-130], the pIC50 was 7.49 on full-length human PLD1 (setting [3]) and > 8.00 at full-length human PLD2 (setting [4]).

For the molecule `[2H]C([2H])([2H])NC(=O)C(=O)N[C@@H](C)C[C@]1(OC)CC[C@@]2(CC1)OC(=O)NN=C2c1cc(F)ccc1Br` [Example 2-131], the pIC50 on full-length human PLD1 (setting [3]) is 7.82; at full-length human PLD2 (setting [4]), > 8.00.

As for `[2H]C([2H])([2H])NC(=O)C(=O)N[C@@H](C)C[C@]1(C#N)CC[C@@]2(CC1)OC(=O)NN=C2c1cc(OC(F)(F)F)ccc1Br` [Example 2-132], the pIC50 on full-length human PLD1 (setting [3]) is 7.96; on full-length human PLD2 (setting [4]), > 8.00.
